The source of these data is patent US20090325960A1, “METHOD FOR TREATING INFLAMMATORY DISEASES USING RHO KINASE INHIBITOR COMPOUNDS” (priority 2008, published 2009).

Read-outs that look alike come from different tables or passages of the source.

Data set [1] relates to cytokine secretion from LPS-stimulated human monocytes. Put plainly: Human monocyte cytokine secretion assay (LPS-stimulated). In kind it is cell-based.
Description: Peripheral blood from healthy human volunteers was collected and the monocytes isolated via Ficoll-paque density centrifugation. […] The cells were allowed to pre-incubate with test compound at the indicated concentration for 30 minutes (37° C., 5% CO2, humidified air); after which the supernatant was removed and media containing compound and 1 ng/mL LPS was added. Cells were allowed to incubate with compounds and LPS for 4 hours at 37° C. after which the supernatant was removed and stored at −80° C. Cytokine concentrations in the supernatant were determined using commercially available Bio-Rad Bio-Plex™ kits according the manufacturer's instructions.
Data set [2] can be described thus: Rat oral pharmacokinetics (plasma). The data set is classed as in vivo. The conditions noted are these: rat oral PK, mean of n = 3 rats; for AUC (0-last): time zero through last observable value.
Description: Plasma (EDTA K2 anticoagulant) was collected from male, cannulated, CD Sprague Dawley rats to determine the pharmacokinetics of formulations containing compound inhibitors of Rho kinase. Each animal was dosed orally with a 4 ml/kg solution or suspension of each test compound in 10 mM acetate buffered saline, pH 4.5 at a final concentration range of 20-30 mol/kg. Blood was collected at 0.25, 0.5, 1, 2, 4, 6, 8, and 24 hours. Plasma samples were assayed for the concentration of the test compound using an on-line, solid phase extraction LC/MS/MS analysis system.
Pharmacokinetic analyses were performed using WinNonlin software version 5.2 (Pharsight Corporation, Mountain View, Calif.).
As determined from the plasma concentration versus time curves, the time to peak and peak exposure are represented by the values Tmax and Cmax, respectively. The AUC values (nM*hr) shown were calculated as the areas under the plasma concentration versus time curves from time zero through the time of the last observable value and represent the total exposure of the compound over the course of the study. Half-life values or the amount of time required for the plasma levels of the compound to decline to half the initial value are represented as t1/2.
For another data set, the target named is T1, Mnk2 (Homo sapiens, UniProt Q9HBH9).
T1 construct: purchased Upstate, Millipore Bioscience Division (KinaseProfiler service)
The data set is classed as biochemical. The procedure:
Compounds of Formulae I and II were examined for activity against a selected panel of kinases using the KinaseProfiler™ enzyme profiling services (Upstate, Millipore Bioscience Division). Percent kinase activity at 10 μM and 1 μM test compound and 10 μM ATP was determined against 40 wild-type recombinant human kinases according to Upstate's standard protocol: ASK1, BTK, CSK, c-RAF, GCK, GSK3β, IKKα, IKKβ, IRAK1, IRAK4, JNK1α1, JNK2α2, JNK3, ERK1, ERK2, MAPKAP-K2, MAPKAP-K3, MEK1, MKK4, MKK6, MKK7β, Mnk2, MSK1, PAK3, PDK1, PRAK, ROCK1, Rsk2, SAPK2a, SAPK2b, SAPK3, SAPK4, SRPK1, SRPK2, Syk, TAK1, TBK1, PI3-Kβ, PI3-Kγ, PI3-Kδ.

The subject of data set [3] is monocytes, endothelial cells, and lymphocytes. The conditions noted are these: cited from earlier work.
The subject of data set [4] is A-10 rat thoracic aorta cells. In words: PDGF-stimulated smooth muscle cell proliferation assay (BrdU incorporation). The data set is classed as cell-based.
Description: Effects on cell proliferation were measured using a bromodeoxyuridine (BrdU) incorporation assay. […] Serum free media containing 0.1% BSA was added to the cells. 24 hours later the media was removed and replaced with warmed serum free media. […] Proliferation was then monitored using the BrdU Cell Proiferation Assay, HTS (Calbiochem cat. # HTS01). BrdU was allowed to incorporate into cells for 24 hours prior to the addition of fixative/denaturing solution and the fluorometric detection of incorporated BrdU using a BrdU antibody as per manufacturer's directions. Data are reported as a percent of the PDGF-stimulated BrdU incorporation.
Data set [5] has as its system ova-sensitized, ova-challenged BALB/c mice. In words: In vivo anti-inflammatory activity, mouse ovalbumin sensitization model (BALF cells and cytokines). As to conditions: dosed orally to day 31, anti-inflammatory dosing paradigm.
Description: Upon arrival, the animals were randomized into groups of five males per cage and assigned to a dosing group. Animals were quarantined for 7 days under test conditions. […] Animals were sensitized on day 0 and 14 of study by an intraperitoneal injection with 20 μg of ovalbumin (ova) and 2.0 mg aluminum hydroxide (alum) which initiates the development of a specific T-helper (Th) cells type 2 resulting in asthmatic animals (denoted as Ova in the fugures). One group of animals received an injection of saline to use as control animals (denoted as normal in the figures). […] Aerosol challenge consists of using an Aerogen Aeroneb nebulizer and controller with a particle size of 4-6 μm mass median aerodynamic diameter (MMAD) with a distribution of 400 μl per minute. This aerosol challenge is necessary to target the Th2-driven allergic inflammation in the lower airways.
The anti-inflammatory dosing paradigm (FIG. 5) was utilized to evaluate the anti-inflammatory effects of experimental compounds. […] On day 32 of the experiment, after measurement of airway hyperreactivity, BALF was collected and all animals were anesthetized, bled and euthanized.
Bronchoalveolar lavage fluid (BALF) was collected by infusing 3.0 ml of saline with 10% fetal calf serum into the lungs via the trachea and then withdrawing the fluid. The total amount of cells/ml of BALF fluid was determined via manual cell count on hemocytometer. The BALF was centrifuged, supernatant removed and analyzed for cytokine concentrations as described below, and cell pellet reconstituted in 500 μL of fluid. Cytospin slides were prepared from the cell pellet using 100 μL of fluid and spinning samples for 5 minutes at 5000 rpms in a cytospin centrifuge, Following Hema3 stain, relative percentages of individual leukocytes were determined on a 200 cell count for each sample. The final concentration of individual leukocyte cell types per ml of BALF was determined by multiplication of the relative percentage of individual leukocytes with the total amount of cells/ml of BALF fluid.
The concentrations of cytokines in the BALF samples were determined using commercially available Bio-plex kits (Bio-Rad) for the detection of mouse IL-5, IL-13, and Eotaxin. The analysis of cytokine levels was measured using the Bio-Plex 200 (Bio-Rad) system according to the manufacturer's instructions.
Data set [6] shares this test system. Put plainly: Prevention of airway hyperreactivity (Penh, methacholine) in mouse ovalbumin sensitization model. In kind it is in vivo. The conditions noted are these: days 27 to 31. The procedure:
The anti-inflammatory dosing paradigm consists of dosing the animals once a day starting on day 27 and finishing on either day 30 or 31 (1 hr prior to the aerosolized ovalbumin challenges on days 28 to 30) but not on day 32 when hyperreactivity evaluation occurs. […] Exposure to the methacholine doses consisted of a 3 minute period during which a nebulizer was aerosolizing the methacholine and an additional 3 minute period following the cessation of nebulization. […] Enhanced pause (Penh), a unitless index of airway hyperreactivity, is derived from the expiratory side of the respiratory waveform measured via the plethysmograph and is used as an indirect measure of airway resistance and hyperreactivity. […] Following the methacholine dose response, BALF was collected and all animals were anesthetized, bled and euthanized. […] The Penh value at each of the dose levels of methacholine represents the 6-minute average response. Change from baseline (CFB) in Penh was calculated at each methacholine dose and the area under the curve (AUC) for these CFB values was calculated using the trapezoidal rule. This same approach was applied for each mouse across multiple experiments. […] Data from equal experimental conditions across experiments performed on different days were pooled for statistical analysis and data reporting. […] A random intercept for each experiment was assumed to account for possible similarities of the results obtained from a given experiment (i.e., as a “blocking effect”). […] For FIG. 11, linear AUC values from compound treated mice were reported as a percent of linear AUC values from vehicle-treated ovalbumin-sensitized/ovalbumin-challenged (asthmatic) mice.

The mark [7] stands for this setting: 10 μM of test compound, 1 ng/mL LPS, 4 hours, read-out: IL-1β % (Percent inhibition values for inhibition of cytokine secretion).
[8] abbreviates: 10 μM of test compound, 1 ng/mL LPS, 4 hours, read-out: TNF-α % (Percent inhibition values for inhibition of cytokine secretion).
Where [9] appears, read: read-out: IL-6 % (Percent inhibition values for inhibition of cytokine secretion), 10 μM of test compound, 1 ng/mL LPS, 4 hours.

T1 sequence (Q9HBH9 whole entry): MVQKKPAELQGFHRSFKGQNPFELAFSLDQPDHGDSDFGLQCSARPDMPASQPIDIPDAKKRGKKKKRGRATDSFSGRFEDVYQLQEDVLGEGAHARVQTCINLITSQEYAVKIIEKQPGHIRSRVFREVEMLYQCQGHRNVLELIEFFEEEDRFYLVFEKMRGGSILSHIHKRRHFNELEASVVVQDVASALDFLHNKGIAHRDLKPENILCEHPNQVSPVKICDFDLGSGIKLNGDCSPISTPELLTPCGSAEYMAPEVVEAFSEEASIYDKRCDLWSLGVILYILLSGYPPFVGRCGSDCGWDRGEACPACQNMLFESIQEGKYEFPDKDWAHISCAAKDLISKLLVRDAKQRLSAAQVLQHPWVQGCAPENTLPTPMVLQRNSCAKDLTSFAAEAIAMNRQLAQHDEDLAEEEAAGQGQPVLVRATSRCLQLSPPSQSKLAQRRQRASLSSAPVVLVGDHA

Regarding `O=C(COc1cccc(CN2CCC[C@@H](Nc3ccc4[nH]ncc4c3)C2)c1)N1CCOCC1` [Compound 1.127, (R)-2-(3-((3-(1H-indazol-5-ylamino)piperidin-1-yl)methyl)phenoxy)-l-morpholinoethanone], the activity at 10 µM in data set [1] (setting [7]) is 198%; in data set [1] (setting [8]), 97.3%; in data set [1] (setting [9]), 67.3%.

`C=Cc1ccc(CN2CCC[C@@H](Nc3ccc4[nH]ncc4c3)C2)cc1` [Compound 1.208, (R)-N-(1-(4-vinylbenzyl)piperidin-3-yl)-1H-indazol-5-amine]: the activity at 10 µM in data set [1] (setting [7]) is 62%; in data set [1] (setting [8]), 92%; in data set [1] (setting [9]) it was 109%.

With `Fc1ccc(CN2CCC[C@@H](Nc3ccc4[nH]ncc4c3)C2)cc1` [Compound 1.146, (R)-N-(1-(4-fluorobenzyl)piperidin-3-yl)-1H-indazol-5-amine], the activity at 10 µM in data set [1] (setting [8]) was determined as 97.7%; in data set [1] (setting [9]) it was 128%.

`NC(=O)Cn1ccc2ccc(CN3CC[C@@H](Nc4cccc5cnccc45)C3)cc21` [Compound 2.058, (R)-2-(6-((3-(isoquinolin-5-ylamino)pyrrolidin-1-yl)methyl)-1H-indol-1-yl)acetamide]: the activity at 10 µM in data set [1] (setting [9]) worked out at 1.3%.

In the case of `OCCOc1cccc(CN2CCC[C@@H](Nc3ccc4[nH]ncc4c3)C2)c1` [Compound 1.092, (R)-2-(3-((3-(1H-indazol-5-ylamino)piperidin-1-yl)methyl)phenoxy)ethanol], in data set [2], the Vz_F amounted to 19.0 L/kg.

Regarding `Fc1ccc(CN2CCC[C@H](Nc3ccc4[nH]ncc4c3)C2)cc1F` [Compound 1.072, (S)-N-(1-(3,4-difluorobenzyl)piperidin-3-yl)-1H-indazol-5-amine], the activity at 10 µM in data set [1] (setting [7]) was 98.2%; in data set [1] (setting [8]), 83.8%; in data set [1] (setting [9]) it was 96.1%.

With `Cc1ccc(CN2CCC[C@H](Nc3ccc4[nH]ncc4c3)C2)cc1` [Compound 1.078, (S)-N-(1-(4-methylbenzyl)piperidin-3-yl)-1H-indazol-5-amine], the activity at 10 µM was 60.4% in data set [1] (setting [7]), 88.1% in data set [1] (setting [8]) and 111% in data set [1] (setting [9]).

Consider `COc1ccc(CN2CCC[C@@H](Nc3ccc4[nH]ncc4c3)C2)cc1` [Compound 1.226, (R)-N-(1-(4-methoxybenzyl)piperidin-3-yl)-1H-indazol-5-amine], for which the figures for the activity at 10 µM in data set [1] (setting [7]) and in data set [1] (setting [8]) were 99.3% and 66.6%, respectively.

For `CCc1ccc(CN2CCC[C@@H](Nc3ccc4[nH]ncc4c3)C2)cc1` [Compound 1.136, (R)-N-(1-(4-ethylbenzyl)piperidin-3-yl)-1H-indazol-5-amine], in data set [2], the Cmax result is “BLQ”, the Tmax entry was “BLQ”, the Vz_F result was “BLQ” and the t½ entry was “BLQ”. Besides, in data set [2], the “AUC (0-last)” value is on record as “BLQ”.

Turning to `c1ccc(CN2CCC[C@@H](Nc3ccc4[nH]ncc4c3)C2)cc1` [Compound 1.110, (R)-N-(1-benzylpiperidin-3-yl)-1H-indazol-5-amine], the activity at 10 µM in data set [1] (setting [7]) amounted to 134%; in data set [1] (setting [8]) it was 119%; in data set [1] (setting [9]), 112%.

Regarding `c1cc2cc(CN3CCC[C@@H](Nc4ccc5[nH]ncc5c4)C3)ccc2[nH]1` [Compound 1.143, (R)-N-(1-((1H-indol-5-yl)methyl)piperidin-3-yl)-1H-indazol-5-amine], the activity at 10 µM in data set [1] (setting [7]) amounted to 76.8%.

Consider `CSc1ccc(CN2CCC[C@@H](Nc3ccc4[nH]ncc4c3)C2)cc1` [Compound 1.074, (R)-N-(1-(4-(methylthio)benzyl)piperidin-3-yl)-1H-indazol-5-amine], for which the activity at 10 µM in data set [1] (setting [9]) stood at 96%.

Regarding `C=Cc1ccc(CN2CCC[C@H](Nc3ccc4[nH]ncc4c3)C2)cc1` [Compound 1.229, (S)-N-(1-(4-vinylbenzyl)piperidin-3-yl)-1H-indazol-5-amine], the activity at 10 µM in data set [1] (setting [7]) is 44.9%; in data set [1] (setting [8]), 50.7%; in data set [1] (setting [9]) it was 63.2%.

For `Cc1ccc(CN2CCC[C@H](Nc3ccc4[nH]ncc4c3)C2)cc1O` [Compound 1.151, (S)-5-((3-(1H-indazol-5-ylamino)piperidin-1-yl)methyl)-2-methylphenol], the activity at 10 µM in data set [1] (setting [9]) is 114%.

As for `NC(=O)Cn1ccc2cc(CN3CCC[C@@H](Nc4ccc5[nH]ncc5c4)C3)ccc21` [Compound 1.162, (R)-2-(5-((3-(1H-indazol-5-ylamino)piperidin-1-yl)methyl)-1H-indol-1-yl)acetamide], the “Percent inhibition Mnk2 at 1 μM” value at Mnk2 is 111.

Turning to `c1cc2c(cc1CN1CCC[C@@H](Nc3ccc4[nH]ncc4c3)C1)CCO2` [Compound 1.246, (R)-N-(1-((2,3-dihydrobenzofuran-5-yl)methyl)piperidin-3-yl)-1H-indazol-5-amine], the activity at 10 µM in data set [1] (setting [7]) came out at 103%; in data set [1] (setting [8]), 79%; in data set [1] (setting [9]), 108%.

In the case of `Clc1cccc(CN2CCC[C@H](Nc3ccc4[nH]ncc4c3)C2)c1` [Compound 1.170, (S)-N-(1-(3-chlorobenzyl)piperidin-3-yl)-1H-indazol-5-amine], the activity at 10 µM in data set [1] (setting [7]) turned out to be 80.6%; in data set [1] (setting [8]), 67.8%; in data set [1] (setting [9]), 72.7%.

`C[C@@H](N)[C@H]1CC[C@H](C(=O)Nc2ccncc2)CC1` [Compound Y-27632]: the “expression of IL-1β, TNFα, and various other cytokines” value in data set [3] is “suppress expression”.

On to `Brc1ccc(CN2CCC[C@H](Nc3ccc4[nH]ncc4c3)C2)cc1` [Compound 1.142, (S)-N-(1-(4-bromobenzyl)piperidin-3-yl)-1H-indazol-5-amine], for which the activity at 10 µM in data set [1] (setting [7]) turned out to be 82.8%.

As for `Oc1cccc(CN2CCC[C@@H](Nc3ccc4[nH]ncc4c3)C2)c1` [Compound 1.145, (R)-3-((3-(1H-indazol-5-ylamino)piperidin-1-yl)methyl)phenol], in data set [1] (setting [7]), the activity at 10 µM is 129%.

Consider `CSc1ccc(CN2CC[C@@H](Nc3cccc4cnccc34)C2)cc1` [Compound 2.026, (R)-N-(1-(4-(methylthio)benzyl)pyrrolidin-3-yl)isoquinolin-5-amine], for which, in data set [4] (10 μM, 10 ng/mL PDGF), the “Percent of PDGF Induced Proliferation at 10 μM Avg” value turned out to be 52.0%. Besides, in data set [4] (average percent of PDGF stimulated proliferation at 10 μM test compound), the “Proliferation at 10 μM” value is on record as 52.0%. In addition, in data set [2], the Cmax entry is listed as “BLQ”, the Tmax result was “BLQ”, the Vz_F entry is given as “BLQ” and the t½ result is “BLQ”. Further, the “AUC (0-last)” value in data set [2] was “BLQ”.

With `c1cc2cc(CN3CCC[C@@H](Nc4ccc5[nH]ncc5c4)C3)ccc2o1` [Compound 1.131, (R)-N-(1-(benzofuran-5-ylmethyl)piperidin-3-yl)-1H-indazol-5-amine], the “airway eosinophil infiltration (eosinophils per ml of BALF)” value in data set [5] is given as “reduced”. In addition, in data set [6] (oral 15 μMol/kg once a day), the “airway hyperreactivity to metacholine on Day 32” value was “prevention of airway hyperreactivity”. Also, the Vz_F in data set [2] was found to be 6.8 L/kg.

With `c1ccc(CN2CCC[C@H](Nc3ccc4[nH]ncc4c3)C2)cc1` [Compound 1.227, (S)-N-(1-benzylpiperidin-3-yl)-1H-indazol-5-amine], the activity at 10 µM in data set [1] (setting [7]) was determined as 69.4%; in data set [1] (setting [8]), 79.3%; in data set [1] (setting [9]), 66.7%.

`Cc1ccc(CN2CCC[C@@H](Nc3ccc4[nH]ncc4c3)C2)cc1OCCO` [Compound 1.161, (R)-2-(5-((3-(1H-indazol-5-ylamino)piperidin-1-yl)methyl)-2-methylphenoxy)ethanol]: the airway hyperreactivity result in data set [6] (intratracheal once a day) is listed as “prevention of airway hyperreactivity”. The “Proliferation at 1 μM” value in data set [4] (average percent of PDGF stimulated proliferation at 1 μM test compound) turned out to be 50.0%. Moreover, the “Percent inhibition Mnk2 at 1 μM” value on Mnk2 came out at 108.
